In patent publication US11155523B2, “Biphenyl compound as CCR2/CCR5 receptor antagonist” (Medshine Discovery Inc., priority 2016, dated 2021):

Biological target: T1, CCR2 (Homo sapiens, UniProt P41597)
T1 construct: expressed in transfected cells; host or cells: HEK293, clone C7, passage P6
Assay: CCR2 in vitro test: intracellular calcium signal detected by FLIPR
Format: cell-based
Conditions: HEK293 cells expressing CCR2, agonist MCP-1 at EC80, calcium signal
Experimental: (§1) Experimental Example 1: CCR2/CCR5 In Vitro Test
(§2) The intracellular calcium signal was detected by FLIPR, and the IC50 value of the compound was used as an index to evaluate the inhibitory effect of the compound on CCR2 and CCR5 receptors.
(§3) 1. Cell line: The cells were inoculated and incubated in a 5% CO2 incubator at 37° C. overnight.
(§4) CCR2/CCR5 density: 1 M (20 k/well)
(§5) 2. Reagents: Fluo-4 Direct, (Invitrogen, Cat #F10471)
(§6) The compound was dissolved in DMSO to prepare a 10 mM solution, and the compound solution was placed in a nitrogen box.
(§7) Agonist reference compounds:
(§8) Preparation of probenecid in FLIPR assay buffer: 1 mL of FLIPR assay buffer was added to […] of probenecid to prepare a 250 mM solution, which is prepared fresh daily.
(§9) 2× (8 μM) Fluo-4 Direct™ Loading Buffer (per 10 mL) • Thaw a bottle of Fluo-4 Direct™ crystal (F10471). • Add 10 mL of FLIPR assay buffer to the vial. • Add 0.2 mL of probenecid to each 10 mL of Fluo-Direct. The final concentration of the assay was 2.5 mM. • Rotate it and place for >5 minutes (in absence of light). • Prepare fresh daily.
(§10) MCP-1 was diluted in FLIPR assay buffer 1:2 into 10 points, starting at 0.5 uM (final 100 nM). RANTES was diluted in FLIPR assay buffer 1:3 into 10 points, starting at 0.5 uM (final 100 nM). 20 uL of serially diluted compound buffer was added to each well of the DRC plate according to the compound plate map.
(§11) Standard compound was diluted in DMSO 1:3 into 11 points, starting at 1 mM. Test compound was diluted in DMSO 1:3 into 11 points, starting at 2 mM. 250 nL of compound solution was transferred into a cell plate using Echo (Greiner #781946).
(§12) (c) Take the cell plate out of the incubator, and gently dispense 20 uL of 2× Fluo-4 Direct wash-free loading buffer into a 384-well cell culture plate using a pipette. The final cell plate is 40 μL in volume.
(§13) (d) Incubate for 50 minutes at 37° C. under 5% CO2, and for 10 minutes at room temperature.
(§14) (e) Take the cell plate out of the incubator, and place it in FLIPR. Place the composite plate and the tip box in FLIPR.
(§15) (f) For DRC plate: • 1) Run the program on FLIPRTETRA. • 2) Read the fluorescent signal. • 3) Transfer 10 μL of compound from the DRC plate to the cell plate. • 4) Read the fluorescent signal. • 5) Calculate the “maximum−minimum” from Read 90 to the maximum allowed. Use FLIPR to calculate the EC80 value of each cell line. • 6) Prepare 5×EC80 concentration of the agonist reference compound.
(§16) (g) For the composite plate (1-add): • 1) Run the program on FLIPRTETRA. • 2) Transfer 10 μl, of 5×EC80 concentration of the agonist reference compound from the composite plate to the cell plate. • 3) Read the fluorescent signal. • 4) Calculate the “maximum−minimum” from Read 90 to the maximum allowed.
(§17) (h) Analyze the data using Prism, and calculate the IC50 value of the compound.

T1 sequence (P41597 whole entry, species assumed): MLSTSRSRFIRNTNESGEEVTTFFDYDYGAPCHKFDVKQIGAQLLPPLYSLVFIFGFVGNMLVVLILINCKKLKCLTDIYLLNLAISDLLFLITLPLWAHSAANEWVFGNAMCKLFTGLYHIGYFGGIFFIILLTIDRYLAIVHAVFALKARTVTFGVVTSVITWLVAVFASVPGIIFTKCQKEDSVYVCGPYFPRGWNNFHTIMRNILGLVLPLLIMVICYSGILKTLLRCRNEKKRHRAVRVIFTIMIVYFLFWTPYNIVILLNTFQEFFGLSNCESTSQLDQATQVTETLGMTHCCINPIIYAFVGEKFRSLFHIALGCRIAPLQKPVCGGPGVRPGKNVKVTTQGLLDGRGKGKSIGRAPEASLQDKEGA

Question: How did the IC50 turn out when CCCCOCCOc1ccc(-c2ccc(OC(F)F)c(/C=C/C(=O)Nc3ccc([S@+]([O-])Cc4c(C)ncn4CC)cc3)c2)cc1 [WX046] was run?
Answer: 1.1 nM

Question: With CCCCOc1ccc(-c2ccc(OC)c(/C=C/C(=O)Nc3ccc([S@@+]([O-])Cc4cncn4CCC)cc3)c2)cc1 [WX048] as the compound, how does the IC50 read?
Answer: 11.8 nM

Question: For CCCCOCCOc1ccc(-c2ccc(O)c(/C=C/C(=O)Nc3ccc([S@@+]([O-])Cc4cncn4CCC)cc3)c2)cc1 [WX049], which IC50 is on record?
Answer: 13.3 nM

Question: How did the IC50 turn out when CCCOCCOc1ccc(-c2ccc(OC)c(/C=C/C(=O)Nc3ccc([S@@+]([O-])Cc4cncn4CCC)cc3)c2)cc1 [WX050] was run?
Answer: 12.6 nM

Question: Which IC50 does the source give for CCCCOCCOc1ccc(-c2ccc(OC(F)F)c(/C=C/C(=O)Nc3ccc([S@@+]([O-])Cc4cncn4CCC)cc3)c2)cc1 [WX051] here?
Answer: 5.5 nM

Question: CCCOc1ccc(-c2ccc(OC(F)F)c(/C=C/C(=O)Nc3ccc([S@@+]([O-])Cc4cncn4CCC)cc3)c2)cc1 [WX052] was tested. Which IC50 did it give?
Answer: 80.8 nM

Question: For CCCCOCCOc1ccc(-c2cc(Cl)c(OC)c(/C=C/C(=O)Nc3ccc([S@@+]([O-])Cc4cncn4CCC)cc3)c2)cc1 [WX053], which IC50 is on record?
Answer: 5.9 nM

Question: With CCCCOCCOc1ccc(-c2ccc(OC(F)(F)F)c(/C=C/C(=O)Nc3ccc([S@@+]([O-])Cc4c(C)ncn4CC)cc3)c2)cc1 [WX054] as the compound, how does the IC50 read?
Answer: 43.4 nM

Question: How did the IC50 turn out when CCCCOCCOc1ccc(-c2ccc(OC(F)(F)F)c(/C=C/C(=O)Nc3ccc([S@+]([O-])Cc4c(C)ncn4CC)cc3)c2)cc1 [WX055] was run?
Answer: 7.6 nM

Question: With CCCCOCCOc1ccc(-c2ccc(OC)c(/C=C/C(=O)Nc3ccc([S+]([O-])Cc4cnccc4C)cc3)c2)cc1 (stereo not drawn) [WX056] as the compound, how does the IC50 read?
Answer: 71.1 nM

Question: CCCCOCCOc1ccc(-c2ccc([S+]([O-])C(C)C)c(/C=C/C(=O)Nc3ccc([S@@+]([O-])Cc4c(C)ncn4CC)cc3)c2)cc1 (stereo partly drawn) [WX057] was tested. Which IC50 did it give?
Answer: 24.7 nM

Question: For CCCCOCCOc1ccc(-c2ccc(SC(C)C)c(/C=C/C(=O)Nc3ccc([S@@+]([O-])Cc4cncn4CCC)cc3)c2)cc1 [WX058], which IC50 is on record?
Answer: 28.2 nM

Question: Which IC50 does the source give for CCCCOCCOc1ccc(-c2cc(C)cc(/C=C/C(=O)Nc3ccc([S@@+]([O-])Cc4cncn4CCC)cc3)c2)cc1 [WX059] here?
Answer: 9.9 nM

Question: With CCCCOCCOc1ccc(-c2ccc(C(F)(F)F)c(/C=C/C(=O)Nc3ccc([S@@+]([O-])Cc4cncn4CCC)cc3)c2)cc1 [WX060] as the compound, how does the IC50 read?
Answer: 18.5 nM

Question: With CCCCOCCOc1ccc(-c2ccc(OC(F)F)c(/C=C/C(=O)Nc3ccc([S@@+]([O-])Cc4c(C)ncn4CC)cc3)c2)cc1 [WX061] as the compound, how does the IC50 read?
Answer: 8.9 nM

Question: How did the IC50 turn out when CCCOc1ccc(-c2ccc(OC(F)F)c(/C=C/C(=O)Nc3ccc([S@@+]([O-])Cc4c(C)ncn4CC)cc3)c2)cc1 [WX062] was run?
Answer: 84.5 nM

Question: With CCCOc1ccc(-c2ccc(OC(F)F)c(/C=C/C(=O)Nc3ccc([S@+]([O-])Cc4c(C)ncn4CC)cc3)c2)cc1 [WX063] as the compound, how does the IC50 read?
Answer: 9.4 nM

Question: For CCCOCCOc1ccc(-c2ccc(OC(F)F)c(/C=C/C(=O)Nc3ccc([S@@+]([O-])Cc4cncn4CCC)cc3)c2)cc1 [WX064], which IC50 is on record?
Answer: 12.8 nM

Biological target: T2, CCR5 (Homo sapiens, UniProt P51681)
T2 construct: expressed in transfected cells; host or cells: HEK293, clone C13, passage P4
Assay: CCR5 in vitro test: intracellular calcium signal detected by FLIPR
Format: cell-based
Conditions: HEK293 cells expressing CCR5, agonist RANTES at EC80, calcium signal
Experimental: as §1, §2, §3, §4, §5, §6, §7, §8, §9, §10, §11, §12, §13, §14, §15, §16, §17

T2 sequence (P51681 whole entry, species assumed): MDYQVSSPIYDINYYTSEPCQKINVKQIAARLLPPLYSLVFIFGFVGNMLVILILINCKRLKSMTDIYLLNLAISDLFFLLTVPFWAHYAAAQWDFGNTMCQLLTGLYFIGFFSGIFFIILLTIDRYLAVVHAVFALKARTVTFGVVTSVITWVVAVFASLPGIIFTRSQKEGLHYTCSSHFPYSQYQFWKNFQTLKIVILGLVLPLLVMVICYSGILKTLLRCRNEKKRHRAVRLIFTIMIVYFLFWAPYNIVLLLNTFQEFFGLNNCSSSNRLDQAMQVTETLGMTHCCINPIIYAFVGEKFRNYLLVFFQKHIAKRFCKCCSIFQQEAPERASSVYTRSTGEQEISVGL

Question: With CCCCOCCOc1ccc(-c2ccc(OC(F)F)c(/C=C/C(=O)Nc3ccc([S@+]([O-])Cc4c(C)ncn4CC)cc3)c2)cc1 [WX046] as the compound, how does the IC50 read?
Answer: 2.8 nM

Question: CCCCOc1ccc(-c2ccc(OC)c(/C=C/C(=O)Nc3ccc([S@@+]([O-])Cc4cncn4CCC)cc3)c2)cc1 [WX048] was tested. Which IC50 did it give?
Answer: 2.6 nM

Question: CCCCOCCOc1ccc(-c2ccc(O)c(/C=C/C(=O)Nc3ccc([S@@+]([O-])Cc4cncn4CCC)cc3)c2)cc1 [WX049] was tested. Which IC50 did it give?
Answer: 9.2 nM

Question: How did the IC50 turn out when CCCOCCOc1ccc(-c2ccc(OC)c(/C=C/C(=O)Nc3ccc([S@@+]([O-])Cc4cncn4CCC)cc3)c2)cc1 [WX050] was run?
Answer: 20.8 nM

Question: CCCCOCCOc1ccc(-c2ccc(OC(F)F)c(/C=C/C(=O)Nc3ccc([S@@+]([O-])Cc4cncn4CCC)cc3)c2)cc1 [WX051] was tested. Which IC50 did it give?
Answer: 1.4 nM

Question: How did the IC50 turn out when CCCOc1ccc(-c2ccc(OC(F)F)c(/C=C/C(=O)Nc3ccc([S@@+]([O-])Cc4cncn4CCC)cc3)c2)cc1 [WX052] was run?
Answer: 11.9 nM

Question: CCCCOCCOc1ccc(-c2cc(Cl)c(OC)c(/C=C/C(=O)Nc3ccc([S@@+]([O-])Cc4cncn4CCC)cc3)c2)cc1 [WX053] was tested. Which IC50 did it give?
Answer: 1.3 nM

Question: How did the IC50 turn out when CCCCOCCOc1ccc(-c2ccc(OC(F)(F)F)c(/C=C/C(=O)Nc3ccc([S@@+]([O-])Cc4c(C)ncn4CC)cc3)c2)cc1 [WX054] was run?
Answer: 9.2 nM

Question: For CCCCOCCOc1ccc(-c2ccc(OC(F)(F)F)c(/C=C/C(=O)Nc3ccc([S@+]([O-])Cc4c(C)ncn4CC)cc3)c2)cc1 [WX055], which IC50 is on record?
Answer: 6.4 nM

Question: How did the IC50 turn out when CCCCOCCOc1ccc(-c2ccc(OC)c(/C=C/C(=O)Nc3ccc([S+]([O-])Cc4cnccc4C)cc3)c2)cc1 (stereo not drawn) [WX056] was run?
Answer: 16.6 nM

Question: For CCCCOCCOc1ccc(-c2ccc([S+]([O-])C(C)C)c(/C=C/C(=O)Nc3ccc([S@@+]([O-])Cc4c(C)ncn4CC)cc3)c2)cc1 (stereo partly drawn) [WX057], which IC50 is on record?
Answer: 3.5 nM

Question: With CCCCOCCOc1ccc(-c2ccc(SC(C)C)c(/C=C/C(=O)Nc3ccc([S@@+]([O-])Cc4cncn4CCC)cc3)c2)cc1 [WX058] as the compound, how does the IC50 read?
Answer: 5.7 nM

Question: With CCCCOCCOc1ccc(-c2cc(C)cc(/C=C/C(=O)Nc3ccc([S@@+]([O-])Cc4cncn4CCC)cc3)c2)cc1 [WX059] as the compound, how does the IC50 read?
Answer: 8.5 nM

Question: CCCCOCCOc1ccc(-c2ccc(C(F)(F)F)c(/C=C/C(=O)Nc3ccc([S@@+]([O-])Cc4cncn4CCC)cc3)c2)cc1 [WX060] was tested. Which IC50 did it give?
Answer: 4.1 nM

Question: CCCCOCCOc1ccc(-c2ccc(OC(F)F)c(/C=C/C(=O)Nc3ccc([S@@+]([O-])Cc4c(C)ncn4CC)cc3)c2)cc1 [WX061] was tested. Which IC50 did it give?
Answer: 15.2 nM

Question: Which IC50 does the source give for CCCOc1ccc(-c2ccc(OC(F)F)c(/C=C/C(=O)Nc3ccc([S@@+]([O-])Cc4c(C)ncn4CC)cc3)c2)cc1 [WX062] here?
Answer: 20.5 nM

Question: CCCOc1ccc(-c2ccc(OC(F)F)c(/C=C/C(=O)Nc3ccc([S@+]([O-])Cc4c(C)ncn4CC)cc3)c2)cc1 [WX063] was tested. Which IC50 did it give?
Answer: 1.4 nM

Question: Which IC50 does the source give for CCCOCCOc1ccc(-c2ccc(OC(F)F)c(/C=C/C(=O)Nc3ccc([S@@+]([O-])Cc4cncn4CCC)cc3)c2)cc1 [WX064] here?
Answer: 6.1 nM
